# Source: US20090017089A1, “Multiple active agents such as anthelmintics sustained release delivery device” (priority 2003, published 2009)
# Columns and labels:
# [1] = tested on: resistant Haemonchus Contortus; assay: Trial 3: oral albendazole vs prototype albendazole bolus in adult ewes, worm count (abomasa); settings: oral 5.0 mg/kg once
# resistant Cooperia spp. = assay: Trial 3: oral albendazole vs prototype albendazole bolus in adult ewes, worm count (small intestine); settings: oral 5.0 mg/kg once
# [2] = tested on: albendazole resistant Nematodirus spp.; assay: Trial 1: repeated oral dosing of albendazole in lambs, worm count (small intestine)
# [3] = tested on: albendazole resistant Trichostrongylus axei; assay: Trial 1: repeated oral dosing of albendazole in lambs, worm count (abomasa)
# [4] = tested on: resistant Trichostrongylus axei; assay: Trial 3: oral albendazole vs prototype albendazole bolus in adult ewes, worm count (abomasa); settings: oral 5.0 mg/kg once
# adult liver fluke = settings: oral, Coles & Stafford 2001; cited from earlier work
# resistant parasites = settings: Farm 4 from Anderson et al, 1991; cited from earlier work
# [5] = tested on: resistant Ostertagia circumcincta; assay: Trial 3: oral albendazole vs prototype albendazole bolus in adult ewes, worm count (abomasa); settings: oral 5.0 mg/kg once
# [6] = tested on: albendazole resistant Ostertagia Circumcincta; assay: Trial 1: repeated oral dosing of albendazole in lambs, worm count (abomasa)
# immature flukes = settings: in vivo; cited from earlier work
# [7] = tested on: albendazole resistant Cooperia spp.; assay: Trial 1: repeated oral dosing of albendazole in lambs, worm count (small intestine)
# [8] = tested on: abamectin-resistant Ostertagia circumcincta; assay: Trial 2: repeated oral dosing of abamectin in lambs, worm count; type: in vivo
# [9] = tested on: abamectin-resistant Cooperia spp.; assay: as above; type: in vivo
# [10] = tested on: abamectin-resistant Trichostrongylus colubriformis; assay: as above; type: in vivo
# [11] = tested on: multiple drug resistant Trichostrongylus colubriformis; assay: Magnum combination bolus trial in sheep, efficacy based on worm counts; type: in vivo; settings: single standard oral doses
# Procedure: (§1) This concept has again been tested for the present invention by constructing and testing for efficacy a Magnum bolus releasing 2 actives simultaneously. A prototype sheep bolus designed to release 5 mg/kg of albendazole and 0.18 mg/kg abamectin in a 50 kg sheep was tested against two species of multiple drench resistant parasites. Trial lambs ranged in weight from 48-55.5 kg.
# [12] = tested on: multiple drug resistant Ostertagia circumcincta; assay: as above; type: in vivo; settings: single standard oral doses
# Procedure: as §1
# parasites of goats = settings: Pomroy et al, 1992; cited from earlier work
compound,measurement,setting,value
"CCCSc1ccc2nc(NC(=O)OC)[nH]c2c1 [Alb, albendazole]",% reduction in worm count Haemonchus Contortus,[1],91.4%
same,% reduction in worm count Cooperia spp.,resistant Cooperia spp.,59.3%
same,% reduction in worm count Nematodirus spp.,[2]; 1.75 mg/kg for 7 days,58.9%
same,% reduction in worm count Nematodirus spp.,[2]; 2.5 mg/kg for 7 days,69.0%
same,% reduction in worm count Nematodirus spp.,[2]; 3.75 mg/kg for 7 days,88.1%
same,% reduction in worm count Nematodirus spp.,[2]; 5 mg/kg for 7 days,73.9%
same,% reduction in worm count Nematodirus spp.,[2]; 5 mg/kg once,71.2%
same,% reduction in worm count Trichostrongylus axei,[3]; 1.75 mg/kg for 7 days,87.5%
same,% reduction in worm count Trichostrongylus axei,[3]; 2.5 mg/kg for 7 days,90.2%
same,% reduction in worm count Trichostrongylus axei,[3]; 3.75 mg/kg for 7 days,96.8%
same,% reduction in worm count Trichostrongylus axei,[3]; 5 mg/kg for 7 days,97.6%
same,% reduction in worm count Trichostrongylus axei,[3]; 5 mg/kg once,82.9%
same,% reduction in worm count Trichostrongylus axei,[4],91.8%
same,level of efficacy against adult liver fluke,adult liver fluke,variable and less than desirable
same,Efficacy,resistant parasites,73%
same,% reduction in worm count Ostertagia circumcincta,[5],59.3%
same,% reduction in worm count Ostertagia circumcincta,[6]; 1.75 mg/kg for 7 days,74.9%
same,% reduction in worm count Ostertagia circumcincta,[6]; 2.5 mg/kg for 7 days,57.0%
same,% reduction in worm count Ostertagia circumcincta,[6]; 3.75 mg/kg for 7 days,70.9%
same,% reduction in worm count Ostertagia circumcincta,[6]; 5 mg/kg for 7 days,92.3%
same,% reduction in worm count Ostertagia circumcincta,[6]; 5 mg/kg once,42.7%
same,efficacy against immature flukes,immature flukes,ineffective
same,% reduction in worm count Cooperia spp.,[7]; 1.75 mg/kg for 7 days,57.1%
same,% reduction in worm count Cooperia spp.,[7]; 2.5 mg/kg for 7 days,67.5%
same,% reduction in worm count Cooperia spp.,[7]; 3.75 mg/kg for 7 days,83.3%
same,% reduction in worm count Cooperia spp.,[7]; 5 mg/kg for 7 days,86.9%
same,% reduction in worm count Cooperia spp.,[7]; 5 mg/kg once,36.9%
c1ccc([C@H]2CN3CCSC3=N2)cc1 [Levamisole],Efficacy,resistant parasites,88%
CO/N=C1\C[C@]2(C[C@@H]3C[C@@H](C/C=C(\C)C[C@@H](C)/C=C/C=C4\CO[C@@H]5[C@H](O)C(C)=C[C@@H](C(=O)O3)[C@]45O)O2)O[C@H](/C(C)=C/C(C)C)[C@H]1C [Moxidectin],% reduction in worm count Ostertagia circumcincta,[8]; 0.2 mg/kg once,76.3%
same,% reduction in worm count Cooperia spp.,[9]; 0.2 mg/kg once,99.1%
same,% reduction in worm count Trichostrongylus colubriformis,[10]; 0.2 mg/kg once,72.5%
same,Efficacy based on worm counts Trichostrongylus colubriformis,[11],90.6
same,Efficacy based on worm counts Ostertagia circumcincta,[12],59.9
COC(=O)Nc1nc2ccc([S+]([O-])c3ccccc3)cc2[nH]1 (centres unmarked) [oxfendazole],Efficacy,parasites of goats,82%
abamectin,% reduction in worm count Ostertagia circumcincta,[8]; 0.07 mg/kg for 7 days,77.2%
same,% reduction in worm count Ostertagia circumcincta,[8]; 0.113 mg/kg for 7 days,89.3%
same,% reduction in worm count Ostertagia circumcincta,[8]; 0.18 mg/kg for 7 days,96.4%
same,% reduction in worm count Ostertagia circumcincta,[8]; 0.2 mg/kg once,45.0%
same,% reduction in worm count Cooperia spp.,[9]; 0.07 mg/kg for 7 days,99.1%
same,% reduction in worm count Cooperia spp.,[9]; 0.113 mg/kg for 7 days,99.6%
same,% reduction in worm count Cooperia spp.,[9]; 0.18 mg/kg for 7 days,100.0%
same,% reduction in worm count Cooperia spp.,[9]; 0.2 mg/kg once,94.9%
same,% reduction in worm count Trichostrongylus colubriformis,[10]; 0.07 mg/kg for 7 days,47.3%
same,% reduction in worm count Trichostrongylus colubriformis,[10]; 0.113 mg/kg for 7 days,55.3%
same,% reduction in worm count Trichostrongylus colubriformis,[10]; 0.18 mg/kg for 7 days,77.1%
same,% reduction in worm count Trichostrongylus colubriformis,[10]; 0.2 mg/kg once,60.7%
ivermectin,Efficacy,parasites of goats,27%
